Patent publication US10023570B2 (Array BioPharma, Inc., priority 2015, dated 2018)

The compounds below were run against human KDR protein in HEK-293 cells (Homo sapiens (Human), UniProt P35968) (assay: KDR Cell Assay (phospho-KDR in HEK-293 cells expressing inducible KDR)). Settings: pKDR Cell HEK 10% FBS IC50, HEK-293 cells expressing inducible KDR, VEGF stimulated.
Assay type: cell-based
Procedure, shortened: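 HEK-293 cells with inducible human KDR were treated with compound for 1 h in DMEM (0.25% DMSO final), then lysed. Phospho-KDR was quantified by Meso Scale immunoassay, expressed as percent of control, and IC50 taken where a 4-parameter logistic fit crossed 50 POC.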

human KDR protein in HEK-293 cells, sequence (P35968 20-1356): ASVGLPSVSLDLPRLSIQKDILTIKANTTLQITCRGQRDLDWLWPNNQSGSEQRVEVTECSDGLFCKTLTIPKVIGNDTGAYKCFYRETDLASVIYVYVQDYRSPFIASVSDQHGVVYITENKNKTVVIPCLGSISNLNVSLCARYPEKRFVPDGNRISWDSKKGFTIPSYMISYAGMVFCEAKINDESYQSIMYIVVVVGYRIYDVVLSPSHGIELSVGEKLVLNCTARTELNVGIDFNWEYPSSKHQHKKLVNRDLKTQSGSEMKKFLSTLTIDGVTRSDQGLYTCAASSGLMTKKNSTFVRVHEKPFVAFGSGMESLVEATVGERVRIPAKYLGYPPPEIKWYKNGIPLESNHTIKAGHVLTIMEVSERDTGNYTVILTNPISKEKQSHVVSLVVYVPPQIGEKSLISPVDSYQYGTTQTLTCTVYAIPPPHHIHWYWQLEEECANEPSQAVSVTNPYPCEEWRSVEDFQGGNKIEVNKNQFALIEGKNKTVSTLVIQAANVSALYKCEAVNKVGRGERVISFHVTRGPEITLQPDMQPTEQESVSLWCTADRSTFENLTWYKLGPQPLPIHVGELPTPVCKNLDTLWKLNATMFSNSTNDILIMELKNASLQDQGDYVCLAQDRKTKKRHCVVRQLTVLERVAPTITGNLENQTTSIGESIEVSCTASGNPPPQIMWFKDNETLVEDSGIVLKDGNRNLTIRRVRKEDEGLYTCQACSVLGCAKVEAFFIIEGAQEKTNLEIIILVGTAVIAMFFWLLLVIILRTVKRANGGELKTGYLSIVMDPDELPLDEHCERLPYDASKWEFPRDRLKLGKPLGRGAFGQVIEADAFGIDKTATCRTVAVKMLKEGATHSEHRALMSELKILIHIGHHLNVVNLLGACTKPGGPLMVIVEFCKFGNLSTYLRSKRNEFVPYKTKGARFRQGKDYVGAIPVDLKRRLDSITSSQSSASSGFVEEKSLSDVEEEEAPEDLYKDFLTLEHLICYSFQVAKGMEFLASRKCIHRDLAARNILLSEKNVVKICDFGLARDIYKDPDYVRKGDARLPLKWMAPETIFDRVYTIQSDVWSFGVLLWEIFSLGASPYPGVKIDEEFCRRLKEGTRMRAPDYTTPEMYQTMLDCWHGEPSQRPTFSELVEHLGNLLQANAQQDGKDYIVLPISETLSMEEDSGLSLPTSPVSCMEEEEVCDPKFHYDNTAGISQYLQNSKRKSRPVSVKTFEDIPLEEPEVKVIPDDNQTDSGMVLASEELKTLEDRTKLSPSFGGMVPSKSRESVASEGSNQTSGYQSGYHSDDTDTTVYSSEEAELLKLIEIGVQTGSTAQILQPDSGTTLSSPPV

Structure (SMILES)	IC50 [nM]
Cn1cc(-c2cc(-c3ccc(N4CCN(Cc5ccccc5F)CC4)nc3)c3c(C#N)cnn3c2)cn1 [Example 427, 4-(6-(4-(2-fluorobenzyl)piperazin-1-yl)pyridin-3-yl)-6-(1-methyl-1H-pyrazol-4-yl)pyrazolo[1,5-a]pyridine-3-carbonitrile]	937
Cn1cc(-c2cc(-c3ccc(N4CCN(Cc5cc(F)ccc5F)CC4)nc3)c3c(C#N)cnn3c2)cn1 [Example 429, 4-(6-(4-(2,5-difluorobenzyl)piperazin-1-yl)pyridin-3-yl)-6-(1-methyl-1H-pyrazol-4-yl)pyrazolo[1,5-a]pyridine-3-carbonitrile]	1560
Cn1cc(-c2cc(-c3ccc(N4CCN(Cc5cncc(Cl)c5)CC4)nc3)c3c(C#N)cnn3c2)cn1 [Example 430, 4-(6-(4-((5-chloropyridin-3-yl)methyl)piperazin-1-yl)pyridin-3-yl)-6-(1-methyl-1H-pyrazol-4-yl)pyrazolo[1,5-a]pyridine-3-carbonitrile]	791
COc1ccc(CN2CCN(c3ccc(-c4cc(-c5cnn(C)c5)cn5ncc(C#N)c45)cn3)CC2)cc1 [Example 432, 4-(6-(4-(4-methoxybenzyl)piperazin-1-yl)pyridin-3-yl)-6-(1-methyl-1H-pyrazol-4-yl)pyrazolo[1,5-a]pyridine-3-carbonitrile]	263
Cn1cc(-c2cc(-c3ccc(N4CCN(Cc5ccncc5F)CC4)nc3)c3c(C#N)cnn3c2)cn1 [Example 434, 4-(6-(4-((3-fluoropyridin-4-yl)methyl)piperazin-1-yl)pyridin-3-yl)-6-(1-methyl-1H-pyrazol-4-yl)pyrazolo[1,5-a]pyridine-3-carbonitrile]	1700
Cc1c(CN2CCN(c3ccc(-c4cc(-c5cnn(C)c5)cn5ncc(C#N)c45)cn3)CC2)cnn1C [Example 435, 4-(6-(4-((1,5-dimethyl-1H-pyrazol-4-yl)methyl)piperazin-1-yl)pyridin-3-yl)-6-(1-methyl-1H-pyrazol-4-yl)pyrazolo[1,5-a]pyridine-3-carbonitrile]	1330
Cn1cc(-c2cc(-c3ccc(N4CCN(Cc5nccn5C)CC4)nc3)c3c(C#N)cnn3c2)cn1 [Example 437, 4-(6-(4-((1-methyl-1H-imidazol-2-yl)methyl)piperazin-1-yl)pyridin-3-yl)-6-(1-methyl-1H-pyrazol-4-yl)pyrazolo[1,5-a]pyridine-3-carbonitrile]	1970
Cc1cccnc1CN1CCN(c2ccc(-c3cc(-c4cnn(C)c4)cn4ncc(C#N)c34)cn2)CC1 [Example 438, 6-(1-methyl-1H-pyrazol-4-yl)-4-(6-(4-((3-methylpyridin-2-yl)methyl)piperazin-1-yl)pyridine-3-yl)pyrazolo[1,5-a]pyridine-3-carbonitrile]	1990
Cc1nn(C)cc1CN1CCN(c2ccc(-c3cc(-c4cnn(C)c4)cn4ncc(C#N)c34)cn2)CC1 [Example 440, 4-(6-(4-((1,3-dimethyl-1H-pyrazol-4-yl)methyl)piperazin-1-yl)pyridine-3-yl)-6-(1-methyl-1H-pyrazol-4-yl)pyrazolo[1,5-a]pyridine-3-carbonitrile]	1690
Cn1cc(-c2cc(-c3ccc(N4CCN(Cc5c(F)cccc5F)CC4)nc3)c3c(C#N)cnn3c2)cn1 [Example 441, 4-(6-(4-(2,6-difluorobenzyl)piperazin-1-yl)pyridine-3-yl)-6-(1-methyl-1H-pyrazol-4-yl)pyrazolo[1,5-a]pyridine-3-carbonitrile]	576
Cc1ccnc(CN2CCN(c3ccc(-c4cc(-c5cnn(C)c5)cn5ncc(C#N)c45)cn3)CC2)c1 [Example 443, 6-(1-methyl-1H-pyrazol-4-yl)-4-(6-(4-((4-methylpyridin-2-yl)methyl)piperazin-1-yl)pyridine-3-yl)pyrazolo[1,5-a]pyridine-3-carbonitrile]	653
Cc1cnc(CN2CCN(c3ccc(-c4cc(-c5cnn(C)c5)cn5ncc(C#N)c45)cn3)CC2)cn1 [Example 444, 6-(1-methyl-1H-pyrazol-4-yl)-4-(6-(4-((5-methylpyrazin-2-yl)methyl)piperazin-1-yl)pyridin-3-yl)pyrazolo[1,5-a]pyridine-3-carbonitrile]	1290
CCn1cc(CN2CCN(c3ccc(-c4cc(-c5cnn(C)c5)cn5ncc(C#N)c45)cn3)CC2)cn1 [Example 446, 4-(6-(4-((1-ethyl-1H-pyrazol-4-yl)methyl)piperazin-1-yl)pyridin-3-yl)-6-(1-methyl-1H-pyrazol-4-yl)pyrazolo[1,5-a]pyridine-3-carbonitrile]	1470
Cn1cc(CN2CCN(c3ccc(-c4cc(-c5cnn(C)c5)cn5ncc(C#N)c45)cn3)CC2)cn1 [Example 448, 6-(1-methyl-1H-pyrazol-4-yl)-4-(6-(4-((1-methyl-1H-pyrazol-4-yl)methyl)piperazin-1-yl)pyridin-3-yl)pyrazolo[1,5-a]pyridine-3-carbonitrile]	1720
Cn1cnc(CN2CCN(c3ccc(-c4cc(-c5cnn(C)c5)cn5ncc(C#N)c45)cn3)CC2)c1 [Example 449, 4-(6-(4-((1-methyl-1H-imidazol-4-yl)methyl)piperazin-1-yl)pyridin-3-yl)-6-(1-methyl-1H-pyrazol-4-yl)pyrazolo[1,5-a]pyridine-3-carbonitrile]	1340
COc1cccc(CN2CCN(c3ccc(-c4cc(-c5cnn(C)c5)cn5ncc(C#N)c45)cn3)CC2)c1 [Example 450, 4-(6-(4-(3-methoxybenzyl)piperazin-1-yl)pyridin-3-yl)-6-(1-methyl-1H-pyrazol-4-yl)pyrazolo[1,5-a]pyridine-3-carbonitrile]	467
Cn1cc(-c2cc(-c3ccc(N4CCN(Cc5cccc(Cl)c5)CC4)nc3)c3c(C#N)cnn3c2)cn1 [Example 455, 4-(6-(4-(3-chlorobenzyl)piperazin-1-yl)pyridin-3-yl)-6-(1-yl)methyl-1H-pyrazol-4-pyrazolo[1,5-a]pyridine-3-carbonitrile]	464

Further lines, results first:

IC50 [nM]	Structure (SMILES)
916	Cn1cc(-c2cc(-c3ccc(N4CCN(Cc5ccc(Cl)cc5)CC4)nc3)c3c(C#N)cnn3c2)cn1 [Example 425, 4-(6-(4-(4-chlorobenzyl)piperazin-l-yl)pyridin-3-yl)-6-(1-methyl-1H-pyrazol-4-yl)pyrazolo[1,5-a]pyridine-3-carbonitrile]
1250	Cn1cc(-c2cc(-c3ccc(N4CCN(Cc5ccc(F)cc5F)CC4)nc3)c3c(C#N)cnn3c2)cn1 [Example 426, 4-(6-(4-(2,4-difluorobenzyl)piperazin-1-yl)pyridin-3-yl)-6-(1-methyl-1H-pyrazol-4-yl)pyrazolo[1,5-a]pyridine-3-carbonitrile]
880	Cn1cc(-c2cc(-c3ccc(N4CCN(Cc5cccc(F)c5)CC4)nc3)c3c(C#N)cnn3c2)cn1 [Example 428, 4-(6-(4-(3-fluorobenzyl)piperazin-1-yl)pyridin-3-yl)-6-(1-methyl-1H-pyrazol-4-yl)pyrazolo[1,5-a]pyridine-3-carbonitrile]
1500	Cc1cncc(CN2CCN(c3ccc(-c4cc(-c5cnn(C)c5)cn5ncc(C#N)c45)cn3)CC2)n1 [Example 431, 6-(1-methyl-1H-pyrazol-4-yl)-4-(6-(4-((6-methylpyrazin-2-yl)methyl)piperazin-l-yl)pyridin-3-yl)pyrazolo[1,5-a]pyridine-3-carbonitrile]
536	Cc1cc(CN2CCN(c3ccc(-c4cc(-c5cnn(C)c5)cn5ncc(C#N)c45)cn3)CC2)no1 [Example 436, 6-(1-methyl-1H-pyrazol-4-yl)-4-(6-(4-((5-methylisoxazol-3-yl)methyl)piperazin-1-yl)pyridin-3-yl)pyrazolo[1,5-a]pyridine-3-carbonitrile]
1240	Cn1cc(-c2cc(-c3ccc(N4CCN(Cc5ccn(C)n5)CC4)nc3)c3c(C#N)cnn3c2)cn1 [Example 439, 4-(6-(4-((1-methyl-1H-pyrazol-3-yl)methyl)piperazin-l-yl)pyridin-3-yl)-6-(1-methyl-1H-pyrazol-4-yl)pyrazolo[1,5-a]pyridine-3-carbonitrile]
1670	COc1cncc(CN2CCN(c3ccc(-c4cc(-c5cnn(C)c5)cn5ncc(C#N)c45)cn3)CC2)c1 [Example 442, 4-(6-(4-((5-methoxypyridin-3-yl)methyl)piperazin-1-yl)pyridine-3-yl)-6-(1-methyl-1H-pyrazol-4-yl)pyrazolo[1,5-a]pyridine-3-carbonitrile]
1660	CC(C)n1cc(CN2CCN(c3ccc(-c4cc(-c5cnn(C)c5)cn5ncc(C#N)c45)cn3)CC2)cn1 [Example 445, 4-(6-(4-((1-isopropyl-1H-pyrazol-4-yl)methyl)piperazin-1-yl)pyridin-3-yl)-6-(1-methyl-1H-pyrazol-4-yl)pyrazolo[1,5-a]pyridine-3-carbonitrile]
668	Cn1cc(-c2cc(-c3ccc(N4CCN(Cc5cc(F)cc(F)c5)CC4)nc3)c3c(C#N)cnn3c2)cn1 [Example 447, 4-(6-(4-(3,5-difluorobenzyl)piperazin-1-yl)pyridin-3-yl)-6-(1-methyl-1H-pyrazol-4-yl)pyrazolo[1,5-a]pyridine-3-carbonitrile]
1680	Cn1cc(-c2cc(-c3ccc(N4CCN(Cc5cnccn5)CC4)nc3)c3c(C#N)cnn3c2)cn1 [Example 453]
698	Cn1cc(-c2cc(-c3ccc(N4CCN(Cc5ccccc5Cl)CC4)nc3)c3c(C#N)cnn3c2)cn1 [Example 454, 4-(6-(4-(2-chlorobenzyl)piperazin-1-yl)pyridin-3-yl)-6-(1-methyl-1H-pyrazol-4-yl)pyrazolo[1,5-a]pyridine-3-carbonitrile]
≥ 5000	Cn1cc(-c2cc(-c3ccc(N4CCN(CC5CC(F)(F)C5)CC4)nc3)c3c(C#N)cnn3c2)cn1 [Example 459, 4-(6-(4-((3,3-difluorocyclobutyl)methyl)piperazin-l-yl)pyridin-3-yl)-6-(1-methyl-1H-pyrazol-4-yl)pyrazolo[1,5-a]pyridine-3-carbonitrile]
1780	CN(C)c1ccccc1CN1CCN(c2ccc(-c3cc(-c4cnn(C)c4)cn4ncc(C#N)c34)cn2)CC1 [Example 460, 4-(6-(4-(2-(dimethylamino)benzyl)piperazin-1-yl)pyridin-3-yl)-6-(1-methyl-1H-pyrazol-4-yl)pyrazolo[1,5-a]pyridine-3-carbonitrile]
